This is an account of results in US20040110777A1, “Quinazolinones and pyridinylpyrimidinones for controlling invertebrate pests” (priority 2003, published 2004).

Take `Cc1nc(C(F)(F)F)ccc1-c1nc2c(C)cccc2c(=O)n1C(C)C` [Compound 5, 8-methyl-3-(1-methylethyl)-2-[2-methyl-6-(trifluoromethyl)-3-pyridinyl]-4(3H)-quinazolinone]: the melting point was 132 to 135 °C.
